According to patent US9296698B2, “Amino heteroaryl compounds as beta-secretase modulators and methods of use” (Amgen Inc., priority 2009, dated 2016):
Read-outs that look alike come from different tables or passages of the source.

Tests used:
[1] = target: BACE 1 (Beta Secretase enzyme) (Homo sapiens, UniProt P56817); test: In vitro enzymatic BACE FRET assay; type: biochemical
Summary of the method: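 BACE activity read by FRET: peptide substrate (50 nM) carrying fluorophore and quencher across the cleavage site, incubated one hour in 0.05 M acetate pH 4.2, 10% DMSO final, 100 uM genapol. Tris addition raises pH to neutrality to stop the reaction before fluorescence is read.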

[2] = test system: Aβ40 in conditioned medium of cells stably expressing Amyloid Precursor Protein (APP); test: In vitro BACE cell-based assay (HEK cell assay), Aβ40 sandwich ELISA
Summary of the method: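 Cells stably expressing APP received 10-point compound dilutions (top 100 μM or 10 μM; 0.1% DMSO) for 24 h. Secreted Aβ40 was quantified by sandwich ELISA (pAb40 capture, biotinylated 6E10 detection, europium time-resolved fluorescence). IC50 was derived from percent inhibition versus concentration.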

[3] = IC50 range symbols, Table 1, read-out: BACE 1 FRET assay
[4] = Homo sapiens, HEK293, 24 h, IC50 range symbols, Table 1, Aβ40, 24 h incubation, read-out: HEK cell assay
[5] = bound stated, read-out: IC50 value in the FRET BACE enzyme assay

Sequence of BACE 1 (Beta Secretase enzyme) (P56817 46-501, species assumed): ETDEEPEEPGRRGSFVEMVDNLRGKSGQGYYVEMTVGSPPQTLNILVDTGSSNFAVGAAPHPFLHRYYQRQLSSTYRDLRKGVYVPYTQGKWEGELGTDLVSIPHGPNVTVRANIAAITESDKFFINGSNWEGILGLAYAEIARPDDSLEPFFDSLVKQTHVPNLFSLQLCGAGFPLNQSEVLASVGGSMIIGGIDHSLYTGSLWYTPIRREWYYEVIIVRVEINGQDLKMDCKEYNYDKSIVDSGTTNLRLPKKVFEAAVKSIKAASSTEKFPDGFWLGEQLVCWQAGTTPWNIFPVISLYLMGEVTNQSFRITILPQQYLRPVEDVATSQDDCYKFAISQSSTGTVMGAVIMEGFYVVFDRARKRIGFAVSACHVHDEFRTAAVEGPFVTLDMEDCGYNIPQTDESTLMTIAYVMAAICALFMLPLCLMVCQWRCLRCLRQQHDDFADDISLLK

IC50 [1, 3] | IC50 [2, 4] | IC50 [1, 5] | IC50 ([2]; Homo sapiens, HEK293, bound stated in text, read-out: IC50 value in the BACE cell-based in-vitro assay) | IC50 ([2]; IC50 range symbols, Table 1, Aβ40, 24 h incubation, read-out: HEK cell assay) | Compound
< 500 nM | 1000 to 5000 nM |  |  |  | Cc1ccccc1-c1ccc2nc(N)c(CCC(=O)NCCC3CC3)cc2c1 [Example 115, 3-(2-amino-6-o-tolylquinolin-3-yl)-N-(2-cyclopropylethyl)propanamide]
1000 to 5000 nM | > 5000 nM |  |  |  | CC(Cc1cc2cc(-c3ncccc3Cl)ccc2nc1N)C(=O)NCCC(F)(F)F (stereo not drawn) [Example 116, 3-(2-amino-6-(3-chloropyridin-2-yl)quinolin-3-yl)-2-methyl-N-(3,3,3-trifluoropropyl)propanamide]
< 500 nM | 500 to 1000 nM |  |  |  | Cc1cccnc1-c1ccc2nc(N)c(CC(C)C(=O)NCC3CCC(F)(F)CC3)cc2c1 (stereo not drawn) [Example 117, 3-(2-amino-6-(3-methylpyridin-2-yl)quinolin-3-yl)-N-((4,4-difluorocyclohexyl)methyl)-2-methylpropanamide]
> 5000 nM | > 5000 nM |  |  |  | CCC1CCN1C(=O)C(C)Cc1cc2cc(-c3ncccc3C)ccc2nc1N (stereo not drawn) [Example 118, 3-(2-amino-6-(3-methylpyridin-2-yl)quinolin-3-yl)-1-(2-ethylazetidin-1-yl)-2-methylpropan-1-one]
> 5000 nM | > 5000 nM |  |  |  | COCC1CC1c1ccc2nc(N)c(CC(C)C(=O)NCCC(C)(C)C)cc2c1 (stereo not drawn) [Example 119, 3-(2-amino-6-(2-(methoxymethyl)cyclopropyl)quinolin-3-yl)-N-(3,3-dimethylbutyl)-2-methylpropanamide]
500 to 1000 nM | > 5000 nM |  |  |  | CCC1CC1c1ccc2nc(N)c(CC(C)C(=O)NCCC(C)(C)C)cc2c1 (stereo not drawn) [Example 120, 3-(2-amino-6-(2-ethylcyclopropyl)quinolin-3-yl)-N-(3,3-dimethylbutyl)-2-methylpropanamide]
500 to 1000 nM | > 5000 nM |  |  |  | CC(Cc1cc2cc([C@H]3C[C@H]3C)ccc2nc1N)C(=O)NCCC(C)(C)C (stereo partly drawn) [Example 121, 3-(2-amino-6-((1S,2R)-2-methylcyclopropyl)quinolin-3-yl)-N-(3,3-dimethylbutyl)-2-methylpropanamide]
< 500 nM | 500 to 1000 nM |  |  |  | CC(Cc1cc2cc(-c3ccccn3)ccc2nc1N)C(=O)NCCC(C)(C)C (stereo not drawn) [Example 122, 3-(2-amino-6-(pyridin-2-yl)quinolin-3-yl)-N-(3,3-dimethylbutyl)-2-methylpropanamide]
< 500 nM | < 500 nM |  |  |  | CC(Cc1cc2cc(-c3ncccc3CCN3CCOCC3)ccc2nc1N)C(=O)NCCC(C)(C)C (stereo not drawn) [Example 123, 3-(2-amino-6-(3-(2-morpholinoethyl)pyridin-2-yl)quinolin-3-yl)-N-(3,3-dimethylbutyl)-2-methylpropanamide]
500 to 1000 nM | < 500 nM |  |  |  | CC(Cc1cc2cc(-c3ncccc3CCN3CCN(C)CC3)ccc2nc1N)C(=O)NCCC(C)(C)C (stereo not drawn) [Example 124, 3-(2-amino-6-(3-(2-(4-methylpiperazin-1-yl)ethyl)pyridin-2-yl)quinolin-3-yl)-N-(3,3-dimethylbutyl)-2-methylpropanamide]
< 500 nM | < 500 nM |  |  |  | CC(Cc1cc2cc(-c3ncccc3CCN3CCCC3)ccc2nc1N)C(=O)NCCC(C)(C)C (stereo not drawn) [Example 125, 3-(2-amino-6-(3-(2-(pyrrolidin-1-yl)ethyl)pyridin-2-yl)quinolin-3-yl)-N-(3,3-dimethylbutyl)-2-methylpropanamide]
< 500 nM | < 500 nM |  |  |  | CC(Cc1cc2cc(-c3ncccc3CCN(C)C)ccc2nc1N)C(=O)NCCC(C)(C)C (stereo not drawn) [Example 127, 3-(2-amino-6-(3-(2-(dimethylamino)ethyl)pyridin-2-yl)quinolin-3-yl)-N-(3,3-dimethylbutyl)-2-methylpropanamide]
< 500 nM |  |  |  | 1000 to 5000 nM | COc1ccccc1[C@@H](C)NC(=O)C(C)Cc1cc2cc(-c3ccccc3C)ccc2nc1N (stereo partly drawn) [Example 129, 3-(2-amino-6-o-tolylquinolin-3-yl)-N-((R)-1-(2-methoxyphenyl)ethyl)-2-methylpropanamide]

The remaining lines, values behind:

Compound | IC50 [1, 3] | IC50 [2, 4] | IC50 [1, 5] | IC50 ([2]; Homo sapiens, HEK293, bound stated in text, read-out: IC50 value in the BACE cell-based in-vitro assay) | IC50 ([2]; IC50 range symbols, Table 1, Aβ40, 24 h incubation, read-out: HEK cell assay)
Cc1ccccc1-c1ccc2nc(N)c(CC(C)C(=O)NCC3CCCOC3)cc2c1 (stereo not drawn) [Example 92, 3-(2-amino-6-o-tolylquinolin-3-yl)-2-methyl-N-((tetrahydro-2H-pyran-3-yl)methyl)propanamide] | < 500 nM | < 500 nM |  |  | 
Cc1ccccc1-c1ccc2nc(N)c(CC(C)C(=O)NCc3cnn(C)c3)cc2c1 (stereo not drawn) [Example 94, 3-(2-amino-6-o-tolylquinolin-3-yl)-2-methyl-N-((1-methyl-1H-pyrazol-4-yl)methyl)propanamide] | < 500 nM | 1000 to 5000 nM |  |  | 
Cc1ccccc1-c1cc2cc(CCC(=O)NCC3CCCCC3)c(N)nc2cc1C [Example 95, 3-(2-amino-7-methyl-6-(2-methylphenyl)-3-quinolinyl)-N-(cyclohexylmethyl)propanamide] | < 500 nM | > 5000 nM |  |  | 
Cc1ccccc1-c1cc2cc(CCC(=O)NCC3CCCCC3)c(N)nc2cc1F [Example 96, 3-(2-amino-7-fluoro-6-(2-methylphenyl)-3-quinolinyl)-N-(cyclohexylmethyl)propanamide] | < 500 nM | 1000 to 5000 nM | < 50 nM |  | 
Cc1cccnc1-c1cc2cc(CC(C)C(=O)NCC3CCOCC3)c(N)nc2cc1F (stereo not drawn) [Example 97, 3-(2-amino-7-fluoro-6-(3-methyl-2-pyridinyl)-3-quinolinyl)-2-methyl-N-(tetrahydro-2H-pyran-4-ylmethyl)propanamide] | < 500 nM | 1000 to 5000 nM |  |  | 
Cc1cccnc1-c1cc2cc(CC(C)C(=O)NCCC(C)(C)C)c(N)nc2cc1F (stereo not drawn) [Example 98, 3-(2-amino-7-fluoro-6-(3-methyl-2-pyridinyl)-3-quinolinyl)-N-(3,3-dimethylbutyl)-2-methylpropanamide] | < 500 nM | < 500 nM | < 50 nM |  | 
Cc1cccnc1-c1ccc2nc(N)c(CC(C)C(=O)NCCC3(C)CC3)cc2c1 (stereo not drawn) [Example 102, 3-(2-amino-6-(3-methylpyridin-2-yl)quinolin-3-yl)-2-methyl-N-(2-(1-methylcyclopropyl)ethyl)propanamide] | < 500 nM | < 500 nM |  |  | 
CCCCOc1ccccc1-c1ccc2nc(N)c(CC(C)C(=O)NCC3CCCCC3)cc2c1 (stereo not drawn) [Example 103, 3-(2-amino-6-(2-butoxyphenyl)quinolin-3-yl)-N-(cyclohexylmethyl)-2-methylpropanamide] | < 500 nM | < 500 nM | < 50 nM |  | 
COc1ccccc1C(C)NC(=O)C(C)Cc1cc2cc(-c3ccccc3C)ccc2nc1N (stereo not drawn) [Example 104, 3-(2-amino-6-o-tolylquinolin-3-yl)-N-(1-(2-methoxyphenyl)ethyl)-2-methylpropanamide] | < 500 nM | 1000 to 5000 nM |  |  | 
COc1ccccc1C(C)NC(=O)CCc1cc2cc(-c3ccccc3C)ccc2nc1N (stereo not drawn) [Example 105, 3-(2-amino-6-o-tolylquinolin-3-yl)-N-(1-(2-methoxyphenyl)ethyl)propanamide] | < 500 nM | 1000 to 5000 nM |  |  | 
Cc1ccccc1-c1ccc2nc(N)c(CC(C)C(=O)NC(C)c3ccccc3F)cc2c1 (stereo not drawn) [Example 106, 3-(2-amino-6-o-tolylquinolin-3-yl)-N-(1-(2-fluorophenyl)ethyl)-2-methylpropanamide] | < 500 nM | > 5000 nM | < 50 nM |  | 
Cc1ccc(-c2ccc3nc(N)c(CC(C)C(=O)NCC4CCCCC4)cc3c2)c(F)n1 (stereo not drawn) [Example 107, 3-(2-amino-6-(2-fluoro-6-methylpyridin-3-yl)quinolin-3-yl)-N-(cyclohexylmethyl)-2-methylpropanamide] | 1000 to 5000 nM | 1000 to 5000 nM |  |  | 
CC(Cc1cc2cc(-c3ccccc3CN(C)C)ccc2nc1N)C(=O)NCC1CCCCC1 (stereo not drawn) [Example 108, 3-(2-amino-6-(2-((dimethylamino)methyl)phenyl)quinolin-3-yl)-N-(cyclohexylmethyl)-2-methylpropanamide] | < 500 nM | < 500 nM |  | < 100 nM | 
Cc1cccnc1-c1ccc2nc(N)c(CC(C)C(=O)NCCC(C)C)cc2c1 (stereo not drawn) [Example 109, 3-(2-amino-6-(3-methylpyridin-2-yl)quinolin-3-yl)-N-isopentyl-2-methylpropanamide] | < 500 nM | < 500 nM |  |  | 
Cc1cccnc1-c1ccc2nc(N)c(CC(C)C(=O)NCC(F)(F)F)cc2c1 (stereo not drawn) [Example 110, 3-(2-amino-6-(3-methylpyridin-2-yl)quinolin-3-yl)-2-methyl-N-(2,2,2-trifluoroethyl)propanamide] | 500 to 1000 nM | 500 to 1000 nM |  |  | 
Cc1cccnc1-c1ccc2nc(N)c(CC(C)C(=O)NCCC3CC3)cc2c1 (stereo not drawn) [Example 111, 3-(2-amino-6-(3-methylpyridin-2-yl)quinolin-3-yl)-N-(2-cyclopropylethyl)-2-methylpropanamide] | < 500 nM | 1000 to 5000 nM |  |  | 
Cc1cccnc1-c1ccc2nc(N)c(CC(C)C(=O)NCCC(F)(F)F)cc2c1 (stereo not drawn) [Example 112, 3-(2-amino-6-(3-methylpyridin-2-yl)quinolin-3-yl)-2-methyl-N-(3,3,3-trifluoropropyl)propanamide] | < 500 nM | 500 to 1000 nM |  |  | 
Cc1cccnc1-c1ccc2nc(N)c(CC(C)C(=O)NCCC3CCCO3)cc2c1 (stereo not drawn) [Example 113, 3-(2-amino-6-(3-methylpyridin-2-yl)quinolin-3-yl)-2-methyl-N-(2-(tetrahydrofuran-2-yl)ethyl)propanamide] | 500 to 1000 nM | 1000 to 5000 nM |  |  | 
Cc1cccnc1-c1ccc2nc(N)c(CC(C)C(=O)N[C@H](C)C(F)(F)F)cc2c1 (stereo partly drawn) [Example 114, 3-(2-amino-6-(3-methylpyridin-2-yl)quinolin-3-yl)-2-methyl-N-((R)-1,1,1-trifluoropropan-2-yl)propanamide] | 1000 to 5000 nM | 1000 to 5000 nM |  |  | 
